Source: US9827315B2, “Compositions of pharmaceutical actives containing diethylene glycol monoethyl ether or other alkyl derivatives” (THEMIS MEDICARE LIMITED, priority 2013, dated 2017)
Converted amounts (≈) assume the structure as drawn. Like-named read-outs stand apart in the source and are kept apart here.

Tests used:
physchem [1] = conditions: organic solvent or mixture, Solubility in Diethylene Glycol Monoethyl Ether
[2] = cited from earlier work
physchem [3] = conditions: organic solvent or mixture
Protocol: Progesterone is dissolved in solution of 20% Benzyl alcohol giving a clear solution and add Diethylene glycol monoethyl ether with constant stirring and make the volume up to 100 ml with Diethylene glycol monoethyl ether. […] This solution is filled in 3 ml clear glass vial.

[4] = Solubility of pharmaceutical actives in Diethylene glycol monoethyl ether; conditions: for solubility: Diethylene glycol monoethyl ether, organic solvent or mixture, Solubility in Diethylene Glycol Monoethyl Ether
[5] = cited from earlier work; for half-life: in vivo
[6] = Viscosity of formulations prepared in Diethylene glycol monoethyl ether and of comparators; assay type: physicochemical; conditions: final solution/formulation; marketed comparators

Compound: CCCCCCC(=O)O[C@H]1CC[C@H]2C3CCC4=CC(=O)CCC4(C)[C@H]3CCC12C (some centres unmarked) [Testosterone Enanthate, Testosterone enanthate]
- solubility (physchem [1]): 55.5 mg/mL (≈ 139 mM)
- Solubility in water (descriptive) [2]: insoluble

Compound: CC(=O)[C@H]1CC[C@H]2[C@@H]3CCC4=CC(=O)CC[C@]4(C)[C@H]3CC[C@]12C [Progesterone, pregn-4-ene-3,20-dione]
- solubility (physchem [3]): ≤ 100 mg/mL
- solubility in water ([2]; at 19° C.): < 0.1 g/100 ml
- Solubility in water (descriptive) [2]: insoluble

Compound: C[C@]12CC[C@@H]3c4ccc(O)cc4C[C@@H](CCCCCCCCC[S+]([O-])CCCC(F)(F)C(F)(F)F)[C@H]3[C@@H]1CC[C@@H]2O (stereo partly drawn) [Fulvestrant, 7-alpha-[9-(4,4,5,5,5-pentafluoropentylsulphinyl)nonyl]estra-1,3,5-(10)-triene-3,17beta-diol]
- solubility [4]: 58.8 mg/mL (≈ 96.9 mM)
- Solubility in water (descriptive) [2]: practically insoluble

Compound: CCOC(=O)O[C@]1(C(=O)OCCl)CC[C@H]2[C@@H]3CCC4=CC(=O)C=C[C@]4(C)[C@H]3[C@@H](O)C[C@@]21C [Loteprednol]
- solubility (physchem [1]): 25 mg/mL (≈ 53.5 mM)
- solubility in water [2]: 8 μg per 1t

Compound: C[C@]12CC[C@H]3[C@@H](CCC4=CC(=O)CC[C@@]43C)[C@@H]1CC[C@@H]2O [Testosterone]
- half-life [5]: 2 to 4 h
- Solubility in water (descriptive) [2]: practically insoluble

Compound: CCOC(=O)C1=C[C@]2(CC)CCCN3CCc4c(n1c1ccccc41)[C@@H]32 [Vinpocetine]
- solubility [4]: 12 mg/mL (≈ 34.2 mM)
- Solubility in water (descriptive) [2]: Soluble in DMSO, DMF, ethanol, acetic acid, acetone, and chloroform. Insoluble in water.

Compound: COc1cc([C@@H]2c3cc4c(cc3[C@@H](O[C@@H]3O[C@@H]5CO[C@@H](C)O[C@H]5[C@H](O)[C@H]3O)[C@H]3COC(=O)[C@H]23)OCO4)cc(OC)c1O [Etoposide, 4′-demethylepipodophyllotoxin 9-[4,6-0-(R)-ethylidene-β-D-glucopyranoside]]
- solubility (physchem [1]): 30 mg/mL (≈ 51 mM)
- Solubility in water (descriptive) [2]: sparingly soluble

Compound: NC(=O)Cc1cccc(C(=O)c2ccccc2)c1N [Nepafenac]
- solubility [4]: ≤ 2 mg/mL

Compound: CN1C(C(=O)Nc2ccccn2)=C(O)c2ccccc2S1(=O)=O [Piroxicam, (8E)-8-[hydroxy-(pyridin-2-ylamino)methylidene]-9-methyl-10,10-dioxo-10λ6-thia-9-azabicyclo[4.4.0]deca-1,3,5-trien-7-one]
- Viscosity [6]: 3.365 cps

Compound: CCOC1O[C@@H]2O[C@@]3(C)CC[C@H]4[C@H](C)CC[C@@H]([C@H]1C)[C@@]24OO3 (mixture of isomers) [Arteether, 10-Ethoxydecahydro-3,6,9-trimethyl-3,12-epoxy-12H-pyrano[4,3-j]-1,2-benzodioxepin]
- Solubility in Diethylene Glycol Monoethyl Ether [4]: 80 mg/mL (≈ 256 mM)
- Solubility in water (descriptive) [2]: quite water insoluble

Compound: C[C@@H](c1ncncc1F)[C@](O)(Cn1cncn1)c1ccc(F)cc1F [Voricanozole, (2R,3S)-2-(2,4-difluorophenyl)-3-(5-fluoropyrimidin-4-yl)-1-(1H-1,2,4-triazol-1-yl)butan-2-ol]
- Viscosity [6]: 2.977 cps

Compound: CCN1CCCC1CNC(=O)c1cc(S(=O)(=O)CC)c(N)cc1OC (centres unmarked) [Amilsulpride]
- solubility [4]: 25 mg/mL (≈ 67.7 mM)
- Solubility in water (descriptive) [2]: Practically insoluble in water, sparingly soluble in ethanol, soluble in methanol and freely soluble in dichloromethane

Compound: CCN[C@H]1CN(CCCOC)S(=O)(=O)c2sc(S(N)(=O)=O)cc21 [Brinzolamide]
- solubility (physchem [1]): 55.6 mg/mL (≈ 145 mM)

Compound: CN(C/C=C/C#CC(C)(C)C)Cc1cccc2ccccc12 [Terbinafine, [(2E)-6,6-dimethylhept-2-en-4-yn-1-yl](methyl)(naphthalen-1-ylmethyl)amine]
- solubility [4]: 16.7 mg/mL (≈ 57.2 mM)
- Solubility in water (descriptive) [2]: slightly soluble

Compound: Cc1ccc(-c2cc(C(F)(F)F)nn2-c2ccc(S(N)(=O)=O)cc2)cc1 [Celecoxib]
- solubility [4]: 71.4 mg/mL (≈ 187 mM)
- solubility in DMSO [2]: 200 mg/mL (≈ 524 mM)
- solubility in ethanol [2]: 100 mg/mL (≈ 262 mM)
- Solubility in water (descriptive) [2]: very poorly soluble

Compound: C[C@]12CC[C@H]3[C@@H](CCC4=CC(=O)CC[C@@]43C)[C@@H]1CC[C@@H]2OC(=O)CCC1CCCC1 [Testosterone Cypionate, androst-4-en-3-one, 17-(3-cyclopentyl-1-oxopropoxy)-, (17β)-]
- solubility (physchem [1]): 50 mg/mL (≈ 121 mM)
- Viscosity [6]: less than 7 cps

Compound: O=C(CCCN1CCC(O)(c2ccc(Cl)cc2)CC1)c1ccc(F)cc1 [Haloperidol, 4-[4-(p-chlorophenyl)-4-hydroxypiperidino]-4′-fluorobutyrophenone]
- solubility (physchem [1]): 8.3 mg/mL (≈ 22.1 mM)
- solubility in water [2]: 1.4 mg/100 ml
- solubility in 0.1 N hydrochloric acid ([2]; with heating): 3 mg/mL (≈ 7.98 mM)

Compound: C[C@H]1O[C@@H](O[C@H]2[C@@H](O)C[C@H](OC3CC[C@@]4(C)[C@H](CC[C@@H]5[C@@H]4C[C@@H](O)[C@]4(C)[C@@H](C6=CC(=O)OC6)CC[C@]54O)C3)O[C@@H]2C)C[C@H](O)C1OC1C[C@H](O)[C@H](O)[C@@H](C)O1 (stereo partly drawn) [Digoxin, (3β, 5β,12β)-3-[(O-2,6-dideoxy-β-D-ribo-hexopyranosyl-(1→4)-O-2,6-dideoxy-β-D-ribo-hexopyranosyl-(1→4)-2,6-dideoxy-β-D-ribo-hexopyranosyl)oxy]-12,14-dihydroxy-card-20(22)-enolide]
- half-life [5]: about 36 hours

Compound: CC(=O)O[C@H]1C(=O)[C@@]2(C)[C@H]([C@H](OC(=O)c3ccccc3)[C@]3(O)CC(OC(=O)[C@H](O)[C@@H](NC(=O)c4ccccc4)c4ccccc4)C(C)=C1C3(C)C)[C@]1(OC(C)=O)CO[C@@H]1C[C@@H]2O (stereo partly drawn) [Paclitaxel, (2α,4α,5β,7β,10β,13α)-4,10-bis(acetyloxy)-13-{[(2R,3S)-3-(benzoylamino)-2-hydroxy-3-phenylpropanoyl]oxy}-1,7-dihydroxy-9-oxo-5,20-epoxytax-11-en-2-yl benzoate]
- solubility (physchem [1]): 23.8 mg/mL (≈ 27.9 mM)
- Solubility in water (descriptive) [2]: insoluble

Compound: COc1ccccc1OCC(O)COC(N)=O (centres unmarked) [Methocarbamol, 3-(2-methoxyphenoxy)-1,2-propanediol 1-carbamate]
- Solubility in water (descriptive) [2]: sparingly soluble

Compound: COc1ccnc(C[S+]([O-])c2nc3ccc(OC(F)F)cc3[nH]2)c1OC (centres unmarked) [Pantoprazole]
- Solubility in Diethylene Glycol Monoethyl Ether [4]: 80 mg/mL (≈ 209 mM)

Compound: CO[C@H]1O[C@@H]2O[C@@]3(C)CC[C@H]4[C@H](C)CC[C@@H]([C@H]1C)[C@@]24OO3 [Artemether, (+)-(3-alpha,5a-beta,6-beta,8a-beta, 9-alpha,12-beta,12aR)-decahydro-10-methoxy-3,6,9-trimethyl-3,12-epoxy-12H-pyrano(4,3-j)-1,2-benzodioxepin]
- solubility [4]: 100 mg/mL (≈ 335 mM)
- Solubility in water (descriptive) [2]: practically insoluble

Compound: CC(C)c1cccc(C(C)C)c1O [Propofol, 2,6-diisopropylphenol]
- Viscosity [6]: less than 5 cps

Compound: OC(Cn1cncn1)(Cn1cncn1)c1ccc(F)cc1F [Fluconazole, 2-(2,4-difluorophenyl)-1,3-bis(1H-1,2,4-triazol-1-yl)propan-2-ol]
- Solubility in water (descriptive) [2]: very slightly soluble

Compound: NC[C@H]1O[C@H](O[C@H]2[C@H](O)[C@@H](O[C@H]3O[C@H](CO)[C@@H](O)[C@H](N)[C@H]3O)[C@H](N)C[C@@H]2N)[C@H](N)C[C@@H]1O [Tobramycin]
- solubility [4]: 3 mg/mL (≈ 6.42 mM)
- Solubility in water (descriptive) [2]: Soluble

Compound: COC(=O)[C@@H]1CC2=CC(=O)CC[C@]2(C)[C@@]23O[C@@H]2C[C@@]2(C)[C@@H](CC[C@@]24CCC(=O)O4)[C@H]13 [Eplerenone, pregn-4-ene-7,21-dicarboxylic acid, 9,11-epoxy-17-hydroxy-3-oxo, γ-lactone, methyl ester (7α, 11α, 17α)]
- octanol/water partition coefficient ([2]; at pH 7.0): approximately 7.1
- Solubility in water (descriptive) [2]: very slightly soluble

Compound: CCCC(=O)O[C@]1(C(=O)COC(C)=O)CC[C@H]2[C@@H]3C[C@H](F)C4=CC(=O)C=C[C@]4(C)[C@@]3(F)[C@@H](O)C[C@@]21C [Difluprednate]
- Solubility in water (descriptive) [2]: Very low solubility in water

Compound: CCN(CC)CCOC(=O)C1(C2CCCCC2)CCCCC1 [Dicyclomine Hydrocloride, Dicyclomine]
- Solubility in water (descriptive) [2]: soluble

Compound: COCCCOc1ccnc(C[S+]([O-])c2nc3ccccc3[nH]2)c1C (racemic) [Rabeprazole, (RS)-2-([4-(3-methoxypropoxy)-3-methylpyridin-2-yl]methylsulfinyl)-1H-benzo[d]imidazole]
- bioavailability ([5]; enteric coated tablet): 51%
- Solubility in water (descriptive) [2]: insoluble

Compound: CCCCC[C@H](O)/C=C/[C@H]1[C@H](O)CC(=O)[C@@H]1CCCCCCC(=O)O [Prostaglandin E1 (Alprostadil), (11α,13E,15S)-11,15-dihydroxy-9-oxoprost-13-en-1-oic acid]
- solubility (physchem [1]): 50 mg/mL (≈ 141 mM)
- solubility in double distilled water ([2]; at 35° C.): 8000 micrograms per 100 milliliter

Compound: CCC(=O)O[C@]1(C(=O)SCF)[C@H](C)C[C@H]2[C@@H]3C[C@H](F)C4=CC(=O)C=C[C@]4(C)[C@@]3(F)[C@@H](O)C[C@@]21C [Fluticasone Propionate]
- Solubility in water (descriptive) [2]: It is practically insoluble in water, freely soluble in dimethyl sulfoxide and dimethylformamide, and slightly soluble in methanol and 95% ethanol. Solubility in Diethylene glycol monoethyl ether is 14.7 mg/ml.

Compound: CC(=O)O[C@@]12CO[C@@H]1C[C@H](O)[C@@]1(C)C(=O)[C@H](O)C3=C(C)[C@@H](OC(=O)[C@H](O)[C@@H](NC(=O)OC(C)(C)C)c4ccccc4)C[C@@](O)([C@@H](OC(=O)c4ccccc4)[C@H]21)C3(C)C [Docetaxel, 1,7β,10β-trihydroxy-9-oxo-5β,20-epoxytax-11-ene-2α,4,13α-triyl 4-acetate 2-benzoate 13-{(2R,3S)-3-[(tert-butoxycarbonyl)amino]-2-hydroxy-3-phenylpropanoate}]
- solubility [4]: 55 mg/mL (≈ 68.1 mM)
- Solubility in water (descriptive) [2]: practically insoluble
